Laboratory results taken from ChEMBL document CHEMBL1201862, “PubChem BioAssay data set” (2004).
Activity calls are given as the source filed them.

Columns and labels:
[1] = luciferase reporter signal suppression in cells – H4 neuroglioma cells, luminescence, dose response (AID 1990); assay type: functional, cell-based
[2] = Luminescence Cell-Based Dose Response HTS to Identify Inhibitors of 5'UTR Stem-Loop Driven Prion Protein mRNA Translation in H4 Neuroglioblastoma Cells. [Related pubchem assays: 1827 (Project Summary), 1813 (Primary HTS)]; assay type: functional
[3] = target: T1, Heat shock factor protein 1 (Mus musculus, UniProt P38532); assay: decrease of HSF1-responsive luciferase luminescence – cell-based, NIH3T3, dose retest, confirmation (AID 2382); assay type: functional;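 further: NIH3T3 fibroblasts with HSF1-driven luciferase reporter stressed by proteasome inhibitor MG132; luminescence from HSF1-driven luciferase expression after 8 hours of MG132 stress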
T1 sequence (P38532 whole entry): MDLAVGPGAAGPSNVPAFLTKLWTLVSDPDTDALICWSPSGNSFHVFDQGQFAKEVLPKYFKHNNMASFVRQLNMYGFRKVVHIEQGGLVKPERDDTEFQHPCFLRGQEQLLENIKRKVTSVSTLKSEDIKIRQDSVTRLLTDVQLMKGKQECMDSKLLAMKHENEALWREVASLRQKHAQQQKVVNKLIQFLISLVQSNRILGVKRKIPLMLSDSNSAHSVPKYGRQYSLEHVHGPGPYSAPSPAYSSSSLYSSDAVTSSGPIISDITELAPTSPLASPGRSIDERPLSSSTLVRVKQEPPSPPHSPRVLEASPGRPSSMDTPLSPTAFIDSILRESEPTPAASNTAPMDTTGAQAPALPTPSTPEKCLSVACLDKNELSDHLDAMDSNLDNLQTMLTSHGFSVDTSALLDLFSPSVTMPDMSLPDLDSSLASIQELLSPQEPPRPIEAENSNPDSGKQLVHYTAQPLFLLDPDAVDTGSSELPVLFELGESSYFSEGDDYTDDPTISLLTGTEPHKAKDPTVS

[4] = alpha-synuclein stem-loop luciferase translation blockers – H4 neuroglioma cells, luminescence, confirmation (AID 1988); assay type: functional, cell-based
Jurkat = assay: blockers of NF-kB activation in T cells – Jurkat, luciferase reporter, luminescence, B- and T-cell, dose response (AID 489004); assay type: functional, cell-based; conditions: Homo sapiens;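 further: NF-kB luciferase reporter Jurkat cells stimulated with PMA plus ionomycin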
[5] = target: Cyclin-dependent kinase 5/CDK5 activator 1 (Homo sapiens, UniProt Q00535); assay: blockade of human CDK5 activity – biochemical, cherry-picked samples, set 2, dose response (AID 504545)
[6] = HEK-293T viability loss, compound-treated – cell-based, uHTS hits, cytotoxicity control for B/T-cell NF-kB inhibitor project, dose response (AID 489019); assay type: functional;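 further: IC50 reflects cytotoxicity as loss of cell viability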
[7] = target: Latent membrane protein 1 (Human herpesvirus 4 (strain B95-8), UniProt P03230); assay: LMP1 TES1 pathway selectivity over dsRED control – imaging, HEK293T, dual-color eGFP/dsRED, cherry-picks, selectivity assay for LMP1 NF-kB inhibitor project, dose response (AID 588398); assay type: functional, cell-based
[8] = reduction of Shn3 3'UTR-driven luciferase in osteoblasts – cell-based, Clone20 osteoblasts, firefly luciferase, cherry-picked, dose response (AID 624132); assay type: functional;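 further: firefly luciferase luminescence from reporter carrying the Shn3 3'UTR in osteoblasts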
[9] = blockers of HIV-1 envelope-mediated cell-cell fusion – cherry-pick, dose response (AID 652057); assay type: functional, cell-based
[10] = viability loss in CEM21 cells – cell-based, CellTiter-Glo luminescence, cherry-picked, cytotoxicity control for viral fusion inhibitor project, dose response (AID 652042); assay type: functional;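 further: potency for signal decrease meaning cytotoxicity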
[11] = blockers of HIV-1 ZM109 envelope-driven cell-cell fusion – HeLa effector, CEM target cells, luciferase, cherry-pick, dose response (AID 652058); assay type: functional, cell-based;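 further: luciferase signal from HIV-1 Env mediated cell-cell fusion of effector and target cells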
Paired box protein Pax-8 = Paired box protein Pax-8 (Homo sapiens, UniProt Q06710); assay: PAX8 transcriptional activity inhibition in RMG-I – RMG-I cells, luciferase, cherry-pick, dose response (AID 687027); assay type: functional, cell-based;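 further: luciferase reporter driven by Pax8 target thyroperoxidase promoter measured by SteadyGlo luminescence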
[12] = off-target signal loss in HeLa-CEM21 co-culture – HeLa F-luc CTL cells, cherry-picked, counter-screen for HIV-1 Env fusion inhibitor project, dose response (AID 652040); assay type: functional, cell-based;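 further: potency for signal decrease marking cytotoxic or nonspecific inhibition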
[13] = HIV-1 AD8 envelope cell-cell fusion blockers – cherry-pick, dose response (AID 652062); assay type: functional, cell-based;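 further: luciferase signal from cell-cell fusion driven by HIV-1 clade B AD8 Env; potency is for inhibitors of fusion seen as a drop in luminescence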
[14] = Shn3 transcript knock-down in Clone20 cells – cell-based, qPCR, cherry-pick, dose response (AID 743415); assay type: functional
[15] = Shn3 3'UTR reporter signal decrease – cell-based, Clone20 osteoblasts, firefly luciferase, cherry-pick, set 2, Schnurri-3 inhibitor project, dose response (AID 720490); assay type: functional;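 further: actives lower the luminescence signal as inhibitors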
[16] = target: Delta-type opioid receptor (Homo sapiens, UniProt P41143); assay: Counterscreen for agonists of heterodimerization of the mu 1 (OPRM1) and delta 1 (OPRD1) opioid receptors: Luminescence-based cell-based high throughput dose response assay to identify agonists of OPRD1 homodimerization. [Related pubchem assays (depositor defined):AID504326, AID504355, AID504692, AID504904, AID504905]; assay type: functional
Mu-type opioid receptor = Mu-type opioid receptor (Homo sapiens, UniProt P35372); assay: Counterscreen for agonists of heterodimerization of the mu 1 (OPRM1) and delta 1 (OPRD1) opioid receptors: Luminescence-based cell-based high throughput dose response assay to identify agonists of OPRM1 homodimerization.; assay type: functional;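 further: U2OS cells expressing OPRM1 and beta-arrestin as split beta-galactosidase partners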
[17] = target: 5-hydroxytryptamine receptor 5A (Homo sapiens, UniProt P47898); assay: Counterscreen for agonists of OPRM1-OPRD1 heterodimerization: luminescence-based cell-based high throughput dose response assay to identify agonists of 5-hydroxytryptamine (serotonin) 5A receptor (HTR5A). [Related pubchem assays (depositor defined):AID504326, AID504355, AID504692, AID504904, AID504905]; assay type: functional
[18] = target: 5-hydroxytryptamine receptor 1A (Homo sapiens, UniProt P08908); assay type: functional
Escherichia coli = assay: microbe, parasite or virus in culture
[19] = target: Glucose-6-phosphate 1-dehydrogenase (Homo sapiens, UniProt P11413); assay: inhibition of Homo sapiens G6PD, dose series – biochemical, fluorescence, selectivity assay for P. falciparum G6PD inhibitor project, dose response (AID 504792); assay type: functional
Nonstructural protein 1 = Nonstructural protein 1 (Influenza A virus, UniProt Q194T2); assay type: functional, Influenza A virus (A/California/07/2009(H1N1))
[20] = target: T2, Microphthalmia-associated transcription factor (Homo sapiens, UniProt O75030); assay: reducers of TRPM1 reporter luminescence, concentration series – cell-based, SK-MEL-5, cherry-picked, set 3, MITF inhibitor project, dose response (AID 493073); assay type: functional;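 further: SK-MEL-5 melanoma cells with luciferase driven by the MITF target TRPM1 promoter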
T2 sequence (O75030 whole entry): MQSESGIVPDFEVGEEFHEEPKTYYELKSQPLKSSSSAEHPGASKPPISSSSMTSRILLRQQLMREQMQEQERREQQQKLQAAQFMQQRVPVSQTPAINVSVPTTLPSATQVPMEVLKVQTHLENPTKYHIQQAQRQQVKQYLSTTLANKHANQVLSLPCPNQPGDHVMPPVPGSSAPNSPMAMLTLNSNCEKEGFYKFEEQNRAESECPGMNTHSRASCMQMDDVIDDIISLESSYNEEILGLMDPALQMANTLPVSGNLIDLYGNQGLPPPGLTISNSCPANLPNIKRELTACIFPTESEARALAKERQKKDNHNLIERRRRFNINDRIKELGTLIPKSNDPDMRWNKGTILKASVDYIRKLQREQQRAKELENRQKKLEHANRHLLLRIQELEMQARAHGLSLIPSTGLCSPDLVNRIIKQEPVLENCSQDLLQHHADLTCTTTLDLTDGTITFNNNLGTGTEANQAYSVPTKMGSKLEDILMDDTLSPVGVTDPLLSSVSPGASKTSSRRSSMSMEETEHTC

CHO = CHO cell viability loss, potency – luminescence, cytotoxicity control for TLR9-MyD88 binding inhibitor project, dose response (AID 588339); assay type: functional, cell-based, hamster; conditions: Cricetulus griseus;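 further: CHO cells stably coexpressing TLR9 and MyD88 fusions from primary screen; compound exposure lasted 48 hours before viability readout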
HEK293 = assay: EBV LMP1 TES2 canonical NF-kB signalling blockers – cell-based, HEK293, luciferase, cherry-pick, dose response (AID 588343); assay type: functional; conditions: Homo sapiens
[21] = target: Heat shock protein HSP 90-alpha (Homo sapiens, UniProt P07900); assay type: functional, organism-based
Vero [22] = assay: cells; assay type: functional, cell-based; conditions: Chlorocebus sabaeus
Vero [23] = assay: cells; assay type: functional; conditions: Chlorocebus sabaeus
A-375 = assay: proliferation inhibition in MITF-low A375 cells – cell-based, cherry-pick samples, set 2, counter-screen for MITF modulator project, dose response (AID 540335); assay type: functional; conditions: Homo sapiens
[24] = target: Beta-2 adrenergic receptor (Homo sapiens, UniProt P07550); assay: ADRB2 activation measured by internalization – cell-based, FAP fluorogen, flow cytometry, cherry pick 1, dose response (AID 588763); assay type: functional
Sequence of Beta-2 adrenergic receptor (P07550 whole entry): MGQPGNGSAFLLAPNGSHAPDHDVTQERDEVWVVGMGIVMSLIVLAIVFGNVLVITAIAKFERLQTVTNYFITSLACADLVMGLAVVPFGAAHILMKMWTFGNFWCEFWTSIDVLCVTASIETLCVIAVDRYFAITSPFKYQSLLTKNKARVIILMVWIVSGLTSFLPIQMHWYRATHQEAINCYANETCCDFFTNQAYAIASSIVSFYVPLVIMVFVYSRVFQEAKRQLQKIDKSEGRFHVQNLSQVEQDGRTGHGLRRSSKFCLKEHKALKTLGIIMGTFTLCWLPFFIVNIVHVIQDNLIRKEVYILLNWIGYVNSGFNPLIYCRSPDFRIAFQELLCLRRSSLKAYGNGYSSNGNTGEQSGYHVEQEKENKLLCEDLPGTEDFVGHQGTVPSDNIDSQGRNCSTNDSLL

Sequence of Latent membrane protein 1 (P03230 whole entry): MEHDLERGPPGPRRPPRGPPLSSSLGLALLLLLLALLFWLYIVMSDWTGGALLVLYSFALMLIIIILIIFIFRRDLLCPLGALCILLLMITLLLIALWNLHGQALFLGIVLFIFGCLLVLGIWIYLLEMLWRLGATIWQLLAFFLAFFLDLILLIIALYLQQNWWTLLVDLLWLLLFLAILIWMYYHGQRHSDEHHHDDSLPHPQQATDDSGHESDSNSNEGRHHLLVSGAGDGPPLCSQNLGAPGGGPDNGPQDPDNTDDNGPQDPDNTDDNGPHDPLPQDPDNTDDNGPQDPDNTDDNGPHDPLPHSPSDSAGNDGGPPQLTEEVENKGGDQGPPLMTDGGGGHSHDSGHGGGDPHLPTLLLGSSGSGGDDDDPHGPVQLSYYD
Sequence of Glucose-6-phosphate 1-dehydrogenase (P11413 whole entry): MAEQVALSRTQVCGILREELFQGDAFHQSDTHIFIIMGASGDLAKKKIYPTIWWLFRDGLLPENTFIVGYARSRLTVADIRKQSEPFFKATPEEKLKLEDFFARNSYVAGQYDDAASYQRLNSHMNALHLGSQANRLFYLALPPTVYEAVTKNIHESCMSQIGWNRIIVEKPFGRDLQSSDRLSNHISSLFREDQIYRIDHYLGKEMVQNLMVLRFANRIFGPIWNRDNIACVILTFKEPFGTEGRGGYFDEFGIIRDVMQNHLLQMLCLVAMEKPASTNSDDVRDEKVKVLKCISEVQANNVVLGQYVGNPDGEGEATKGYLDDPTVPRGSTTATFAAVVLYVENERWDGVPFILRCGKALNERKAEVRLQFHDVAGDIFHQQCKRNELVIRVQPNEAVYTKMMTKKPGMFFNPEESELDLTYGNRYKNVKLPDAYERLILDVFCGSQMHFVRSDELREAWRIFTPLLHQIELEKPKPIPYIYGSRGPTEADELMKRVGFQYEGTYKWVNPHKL
Sequence of 5-hydroxytryptamine receptor 5A (P47898 whole entry): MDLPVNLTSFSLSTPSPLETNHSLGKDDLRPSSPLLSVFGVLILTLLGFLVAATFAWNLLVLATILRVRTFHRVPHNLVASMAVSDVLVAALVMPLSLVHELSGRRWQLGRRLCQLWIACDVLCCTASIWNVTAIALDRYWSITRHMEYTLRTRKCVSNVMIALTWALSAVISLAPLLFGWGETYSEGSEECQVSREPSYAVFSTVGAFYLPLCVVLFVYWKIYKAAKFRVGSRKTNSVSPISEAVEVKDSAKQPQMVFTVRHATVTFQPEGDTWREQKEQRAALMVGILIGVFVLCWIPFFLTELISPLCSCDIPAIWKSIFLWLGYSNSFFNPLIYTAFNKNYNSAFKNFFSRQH
Sequence of Cyclin-dependent kinase 5/CDK5 activator 1 (Q00535 whole entry): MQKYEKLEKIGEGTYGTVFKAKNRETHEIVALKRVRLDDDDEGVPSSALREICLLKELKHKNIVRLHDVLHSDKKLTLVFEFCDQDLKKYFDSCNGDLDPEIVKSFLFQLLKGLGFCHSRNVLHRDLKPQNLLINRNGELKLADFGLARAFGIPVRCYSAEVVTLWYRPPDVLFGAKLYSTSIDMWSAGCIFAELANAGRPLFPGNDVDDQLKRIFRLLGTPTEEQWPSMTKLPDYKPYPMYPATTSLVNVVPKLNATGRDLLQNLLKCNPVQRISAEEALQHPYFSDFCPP
Sequence of Cyclin-dependent kinase 5/CDK5 activator 1 (Q15078 whole entry, further chain): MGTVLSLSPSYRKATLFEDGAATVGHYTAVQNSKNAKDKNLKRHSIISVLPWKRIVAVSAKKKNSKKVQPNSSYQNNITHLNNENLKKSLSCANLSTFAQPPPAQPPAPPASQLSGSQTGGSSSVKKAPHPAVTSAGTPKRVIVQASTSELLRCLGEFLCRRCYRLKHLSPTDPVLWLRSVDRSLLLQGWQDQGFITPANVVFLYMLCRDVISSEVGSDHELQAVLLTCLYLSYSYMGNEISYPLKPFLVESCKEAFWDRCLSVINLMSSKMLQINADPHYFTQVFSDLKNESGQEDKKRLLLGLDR
Sequence of 5-hydroxytryptamine receptor 1A (P08908 whole entry): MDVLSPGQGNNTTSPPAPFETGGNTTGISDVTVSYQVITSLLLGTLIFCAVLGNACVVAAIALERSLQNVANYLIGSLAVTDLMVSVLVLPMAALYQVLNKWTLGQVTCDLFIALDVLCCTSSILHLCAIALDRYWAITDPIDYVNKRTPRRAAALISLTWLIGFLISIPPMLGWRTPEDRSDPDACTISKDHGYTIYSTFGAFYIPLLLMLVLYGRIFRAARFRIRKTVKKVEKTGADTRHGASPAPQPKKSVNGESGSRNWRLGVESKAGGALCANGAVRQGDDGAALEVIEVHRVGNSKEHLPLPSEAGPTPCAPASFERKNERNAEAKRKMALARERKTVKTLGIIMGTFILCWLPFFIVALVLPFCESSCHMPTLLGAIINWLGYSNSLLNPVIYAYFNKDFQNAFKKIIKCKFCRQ
Sequence of Mu-type opioid receptor (P35372 whole entry): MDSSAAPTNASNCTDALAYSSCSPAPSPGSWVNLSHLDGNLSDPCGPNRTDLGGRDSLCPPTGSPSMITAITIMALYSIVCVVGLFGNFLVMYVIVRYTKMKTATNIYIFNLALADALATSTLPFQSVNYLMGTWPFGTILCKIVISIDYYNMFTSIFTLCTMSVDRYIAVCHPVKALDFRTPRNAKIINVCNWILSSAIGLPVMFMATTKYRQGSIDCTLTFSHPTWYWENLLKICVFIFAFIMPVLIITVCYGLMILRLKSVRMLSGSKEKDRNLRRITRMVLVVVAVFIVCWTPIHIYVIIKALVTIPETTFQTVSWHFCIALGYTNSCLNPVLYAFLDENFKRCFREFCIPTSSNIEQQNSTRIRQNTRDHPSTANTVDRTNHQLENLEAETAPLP
Sequence of Nonstructural protein 1 (Q194T2 whole entry): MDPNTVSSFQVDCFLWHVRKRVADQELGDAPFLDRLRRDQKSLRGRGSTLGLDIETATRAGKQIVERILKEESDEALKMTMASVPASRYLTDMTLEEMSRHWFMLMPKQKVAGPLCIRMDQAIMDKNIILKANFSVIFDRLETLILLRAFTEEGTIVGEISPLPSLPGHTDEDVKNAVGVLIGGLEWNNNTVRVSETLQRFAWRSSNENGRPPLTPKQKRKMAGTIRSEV
Sequence of Paired box protein Pax-8 (Q06710 whole entry, the tested form may be a part): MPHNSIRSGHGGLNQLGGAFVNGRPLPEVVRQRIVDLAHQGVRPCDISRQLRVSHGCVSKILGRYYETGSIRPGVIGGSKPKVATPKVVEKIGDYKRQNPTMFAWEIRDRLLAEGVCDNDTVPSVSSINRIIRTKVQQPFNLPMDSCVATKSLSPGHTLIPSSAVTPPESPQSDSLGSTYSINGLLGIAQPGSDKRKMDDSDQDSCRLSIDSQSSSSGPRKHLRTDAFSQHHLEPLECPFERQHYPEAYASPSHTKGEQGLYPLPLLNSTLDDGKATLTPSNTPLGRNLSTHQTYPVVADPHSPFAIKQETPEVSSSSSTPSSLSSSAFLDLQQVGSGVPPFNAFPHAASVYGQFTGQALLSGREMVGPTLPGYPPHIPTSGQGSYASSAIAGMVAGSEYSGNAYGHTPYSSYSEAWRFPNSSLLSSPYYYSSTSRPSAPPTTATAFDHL
Sequence of Delta-type opioid receptor (P41143 whole entry): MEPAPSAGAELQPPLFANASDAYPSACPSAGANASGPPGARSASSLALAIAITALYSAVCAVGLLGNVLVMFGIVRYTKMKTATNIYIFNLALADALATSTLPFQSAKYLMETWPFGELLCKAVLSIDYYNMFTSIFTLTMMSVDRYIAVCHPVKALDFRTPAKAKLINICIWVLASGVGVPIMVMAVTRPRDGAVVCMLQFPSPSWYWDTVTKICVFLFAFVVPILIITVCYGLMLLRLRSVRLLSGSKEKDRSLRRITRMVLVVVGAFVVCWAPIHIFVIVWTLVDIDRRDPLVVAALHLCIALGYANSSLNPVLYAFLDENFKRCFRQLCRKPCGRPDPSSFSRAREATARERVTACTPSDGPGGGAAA

OCCCNc1nccc(-c2cc(Nc3cccc(Cl)c3)ncn2)n1
EC50 [1]: 2330 nM (active) | EC50 [2]: 5300 nM (active) | EC50 [3]: 3800 nM (active) | EC50 [4]: 1860 nM (active) | IC50 (Jurkat): 320 nM (active) | AC50 [5]: 2960 nM (active) | IC50 [6]: > 80000 nM (inactive) | AC50 [7]: 535 nM (active) | AC50 [8]: 2610 nM (active) | AC50 [9]: 417 nM (active) | AC50 [10]: 418 nM (active) | AC50 [11]: < 260 nM (active) | AC50 (Paired box protein Pax-8): 2700 nM (active) | AC50 [12]: 1350 nM (active) | AC50 [13]: 569 nM (active) | AC50 [14]: 5080 nM (active) | AC50 [15]: 2710 nM (active)

CCOC(=O)C1(c2ccccc2)CCN(CCC(=O)Nc2cccc(Br)c2)CC1
EC50 [16]: 56800 nM (inactive) | EC50 (Mu-type opioid receptor): 40600 nM (inactive) | EC50 [17]: > 92500 nM (inactive)

Cn1c(-c2ccccc2)cnc1SCc1nc(O)c2ccccc2n1
EC50 [18]: > 50000 nM (not active) | AC50 (Escherichia coli): 234000 nM (active)

CC(=NNC(=S)N1CCN(c2ccccn2)CC1)c1nccs1
IC50 [19]: > 80000 nM (inactive) | IC50 (Nonstructural protein 1): 3380 nM (active) | AC50 [20]: 681 nM (active) | IC50 (CHO): 110 nM (active) | AC50 (HEK293): 4440 nM (active) | AC50 [21]: 2180 nM (active) | AC50 [7]: 5180 nM (active) | IC50 (Vero [22]): > 25000 nM (active) | CC50 (Vero [23]): 8980 nM (active) | AC50 (A-375): 34700 nM (active)

Cc1cc(C)cc(C(=O)NC(CC(N)=O)c2ccc(N3CCN(c4ccccn4)CC3)c([N+](=O)[O-])c2)c1 (stereo not drawn)
EC50 [24]: 714 nM (active)
